Data taken from PubChem BioAssay AID180 (DTP/NCI, 2004).
Values joined by “and” are separate entries in the source; they are usually repeats but may differ in a detail not shown here. Identical values can stand only once.

System: BDF1 mice, Adenocarcinoma 755 s.c., tumor weight T/C
Assay: NCI In Vivo Anticancer Drug Screen. Data for tumor model Adenocarcinoma 755 (subcutaneous) in B6D2F1 (BDF1) mice
Settings: endpoint: mean tumor weight, higher = larger tumour
Summary of the method: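 In vivo antitumor screen on a transplantable tumor line. Result equals the measure in compound-treated animals divided by the same measure in vehicle controls.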

[1] = dose: 125.0 mg/kg/injection, schedule: Q01DX011 (ip), vehicle: carboxymethylcellulose (CMC)
[2] = dose: 500.0 mg/kg/injection, schedule: Q01DX011 (ip), vehicle: carboxymethylcellulose (CMC)
[3] = dose: 2.0 mg/kg/injection, schedule: Q01DX011 (ip), vehicle: carboxymethylcellulose (CMC)
[4] = dose: 4.0 mg/kg/injection, schedule: Q01DX011 (ip), vehicle: carboxymethylcellulose (CMC)
[5] = dose: 31.0 mg/kg/injection, schedule: Q01DX011 (ip), vehicle: methylcellulose (MC)
[6] = dose: 62.0 mg/kg/injection, schedule: Q01DX011 (ip), vehicle: methylcellulose (MC)
[7] = dose: 125.0 mg/kg/injection, schedule: Q01DX011 (ip), vehicle: methylcellulose (MC)
[8] = dose: 250.0 mg/kg/injection, schedule: Q01DX011 (ip), vehicle: methylcellulose (MC)
[9] = dose: 225.0 mg/kg/injection, schedule: Q01DX011 (ip), vehicle: methylcellulose (MC)

Compound: O=P1(N(CCCl)CCCl)NCCCO1 (stereo unspecified)
- T/C (dose: 6.25 mg/kg/injection, schedule: Q01DX011 (ip), vehicle: saline): 87 % of control
- T/C (dose: 7.13 mg/kg/injection, schedule: Q01DX011 (ip), vehicle: carboxymethylcellulose (CMC)): 59 % of control
- T/C (dose: 7.66 mg/kg/injection, schedule: Q01DX011 (ip), vehicle: carboxymethylcellulose (CMC)): 92 % of control
- T/C (dose: 10.22 mg/kg/injection, schedule: Q01DX011 (ip), vehicle: carboxymethylcellulose (CMC)): 92 % of control
- T/C (dose: 11.4 mg/kg/injection, schedule: Q01DX011 (ip), vehicle: carboxymethylcellulose (CMC)): 46 % of control
- T/C (dose: 12.25 mg/kg/injection, schedule: Q01DX011 (ip), vehicle: carboxymethylcellulose (CMC)): 52 % of control
- T/C (dose: 12.5 mg/kg/injection, schedule: Q01DX011 (ip), vehicle: carboxymethylcellulose (CMC)): 57 % of control
- T/C (dose: 12.5 mg/kg/injection, schedule: Q01DX011 (ip), vehicle: saline): 36 % of control and 60 % of control
- T/C (dose: 14.25 mg/kg/injection, schedule: Q01DX011 (ip), vehicle: carboxymethylcellulose (CMC)): 22 % of control and 29 % of control
- T/C (dose: 19.0 mg/kg/injection, schedule: Q01DX011 (ip), vehicle: carboxymethylcellulose (CMC)): 22 % of control
- T/C (dose: 20.43 mg/kg/injection, schedule: Q01DX011 (ip), vehicle: carboxymethylcellulose (CMC)): 66 % of control
- T/C (dose: 25.0 mg/kg/injection, schedule: Q01DX011 (ip), vehicle: carboxymethylcellulose (CMC)): 8 % of control
- T/C (dose: 25.0 mg/kg/injection, schedule: Q01DX011 (ip), vehicle: saline): 30 % of control and 55 % of control
- T/C (dose: 28.5 mg/kg/injection, schedule: Q01DX011 (ip), vehicle: carboxymethylcellulose (CMC)): 4 % of control and 15 % of control
- T/C (dose: 30.65 mg/kg/injection, schedule: Q01DX011 (ip), vehicle: carboxymethylcellulose (CMC)): 6 % of control and 29 % of control
- T/C (dose: 50.0 mg/kg/injection, schedule: Q01DX011 (ip), vehicle: saline): 8 % of control and 17 % of control
- T/C (dose: 57.0 mg/kg/injection, schedule: Q01DX011 (ip), vehicle: carboxymethylcellulose (CMC)): 3 % of control
- T/C (dose: 61.3 mg/kg/injection, schedule: Q01DX011 (ip), vehicle: carboxymethylcellulose (CMC)): 5 % of control

Compound: NC(=O)CSc1nc(N)nc2nc[nH]c12
- T/C (dose: 63.0 mg/kg/injection, schedule: Q01DX011 (ip), vehicle: carboxymethylcellulose (CMC)): 113 % of control
- T/C [1]: 67 % of control
- T/C (dose: 250.0 mg/kg/injection, schedule: Q01DX011 (ip), vehicle: carboxymethylcellulose (CMC)): 48 % of control
- T/C [2]: 33 % of control

Compound: CS(=O)(=O)OCCCCCCCCCOS(C)(=O)=O
- T/C [3]: 35 % of control
- T/C [4]: 49 % of control
- T/C (dose: 8.0 mg/kg/injection, schedule: Q01DX011 (ip), vehicle: carboxymethylcellulose (CMC)): 54 % of control
- T/C (dose: 16.0 mg/kg/injection, schedule: Q01DX011 (ip), vehicle: carboxymethylcellulose (CMC)): 26 % of control
- T/C (dose: 28.0 mg/kg/injection, schedule: Q01DX011 (ip), vehicle: carboxymethylcellulose (CMC)): 7 % of control

Compound: CN1CC[C@]23c4c5ccc(O)c4O[C@H]2C(=O)CC[C@H]3[C@H]1C5
- T/C (dose: 8.0 mg/kg/injection, schedule: Q01DX011 (ip), vehicle: methylcellulose (MC)): 53 % of control and 70 % of control
- T/C (dose: 16.0 mg/kg/injection, schedule: Q01DX011 (ip), vehicle: methylcellulose (MC)): 50 % of control and 75 % of control
- T/C (dose: 32.0 mg/kg/injection, schedule: Q01DX011 (ip), vehicle: methylcellulose (MC)): 61 % of control

Compound: Cc1ccccc1Nc1nc(N)nc(C)c1Br
- T/C (dose: 15.0 mg/kg/injection, schedule: Q01DX011 (ip), vehicle: methylcellulose (MC)): 55 % of control
- T/C [5]: 88 % of control
- T/C [6]: 106 % of control
- T/C [7]: 72 % of control
- T/C [8]: 81 % of control

Compound: C=CCn1cnc2c(=S)nc[nH]c21
- T/C (dose: 0.37 mg/kg/injection, schedule: Q01DX011 (ip), vehicle: saline): 49 % of control
- T/C (dose: 0.5 mg/kg/injection, schedule: Q01DX011 (ip), vehicle: saline): 82 % of control
- T/C (dose: 0.75 mg/kg/injection, schedule: Q01DX011 (ip), vehicle: saline): 72 % of control
- T/C (dose: 1.0 mg/kg/injection, schedule: Q01DX011 (ip), vehicle: saline): 48 % of control
- T/C (dose: 2.0 mg/kg/injection, schedule: Q01DX011 (ip), vehicle: alkali diluted with saline): 7 % of control
- T/C (dose: 2.25 mg/kg/injection, schedule: Q01DX011 (ip), vehicle: alkali diluted with saline): 3 % of control
- T/C (dose: 2.75 mg/kg/injection, schedule: Q01DX011 (ip), vehicle: alkali diluted with saline): 5 % of control
- T/C (dose: 3.0 mg/kg/injection, schedule: Q01DX011 (ip), vehicle: alkali diluted with saline): 9 % of control
- T/C (dose: 6.0 mg/kg/injection, schedule: Q01DX011 (ip), vehicle: alkali diluted with saline): 1 % of control
- T/C (dose: 12.5 mg/kg/injection, schedule: Q01DX011 (ip), vehicle: alkali diluted with saline): 2 % of control

Compound: CCCCn1nnc2c(N)nc(N)nc21
- T/C [6]: 123 % of control
- T/C [7]: 70 % of control
- T/C [9]: 56 % of control

Compound: CCC(C)SC1=NC=NC2=NC=NC21 (stereo unspecified)
- T/C (dose: 9.0 mg/kg/injection, schedule: Q01DX011 (ip), vehicle: other): 56 % of control
- T/C (dose: 13.0 mg/kg/injection, schedule: Q01DX011 (ip), vehicle: other): 33 % of control
- T/C (dose: 20.0 mg/kg/injection, schedule: Q01DX011 (ip), vehicle: other): 6 % of control
- T/C (dose: 30.0 mg/kg/injection, schedule: Q01DX011 (ip), vehicle: other): 6 % of control

Compound: Cc1cccc(CSc2nc(N)nc3nc[nH]c23)n1
- T/C (dose: 3.9 mg/kg/injection, schedule: Q01DX011 (ip), vehicle: methylcellulose (MC)): 17 % of control
- T/C (dose: 7.8 mg/kg/injection, schedule: Q01DX011 (ip), vehicle: methylcellulose (MC)): 20 % of control
- T/C (dose: 15.6 mg/kg/injection, schedule: Q01DX011 (ip), vehicle: methylcellulose (MC)): 5 % of control
- T/C (dose: 31.25 mg/kg/injection, schedule: Q01DX011 (ip), vehicle: methylcellulose (MC)): 1 % of control

Compound: C/C(=N\NC(=O)c1ccncc1)c1cccc(Cl)c1
- T/C (dose: 7.5 mg/kg/injection, schedule: Q01DX011 (ip), vehicle: methylcellulose (MC)): 47 % of control and 50 % of control
- T/C (dose: 30.0 mg/kg/injection, schedule: Q01DX011 (ip), vehicle: methylcellulose (MC)): 31 % of control

Compound: CC1CC(C)C(=O)C(C(=O)CC2CC(=O)NC(=O)C2)C1 (stereo unspecified)
- T/C [1]: 67 % of control

Compound: C[C@H](N)C(=O)N[C@@H]1[C@H]2C(=C(O)C[C@@H](O)[C@@H]2O)C(=O)O[C@@H]1C
- T/C (dose: 250.0 mg/kg/injection, schedule: Q01DX011 (ip), vehicle: saline): 79 % of control
- T/C (dose: 500.0 mg/kg/injection, schedule: Q01DX011 (ip), vehicle: saline): 64 % of control

Compound: CCC(=O)O[C@H]1CC[C@H]2[C@@H]3CCC4=CC(=O)CC[C@]4(C)[C@H]3[C@@H](O)C[C@]12C
- T/C (dose: 50.0 mg/kg/injection, schedule: Q01DX011 (sc), vehicle: steriod suspending solution): 121 % of control
- T/C (dose: 200.0 mg/kg/injection, schedule: Q01DX011 (sc), vehicle: steriod suspending solution): 101 % of control

Compound: Cc1cnc(SCc2ccc(Cl)cc2Cl)[nH]c1=O
- T/C [5]: 110 % of control
- T/C [6]: 113 % of control
- T/C [7]: 82 % of control
- T/C [8]: 99 % of control

Compound: CN1CC[C@]23c4c5ccc(O)c4O[C@H]2C(=O)CC[C@@]3(O)[C@H]1C5
- T/C (dose: 4.5 mg/kg/injection, schedule: Q01DX011 (ip), vehicle: methylcellulose (MC)): 61 % of control and 73 % of control and 74 % of control

Compound: Nc1nc([S-])c2nc[nH]c2n1.Nc1nc([S-])c2nc[nH]c2n1.Nc1nc([S-])c2nc[nH]c2n1.[Pt]
- T/C (dose: 1.0 mg/kg/injection, schedule: Q01DX011 (ip), vehicle: carboxymethylcellulose (CMC)): 44 % of control
- T/C (dose: 1.3 mg/kg/injection, schedule: Q01DX011 (ip), vehicle: carboxymethylcellulose (CMC)): 65 % of control
- T/C [3]: 19 % of control
- T/C (dose: 2.5 mg/kg/injection, schedule: Q01DX011 (ip), vehicle: carboxymethylcellulose (CMC)): 12 % of control
- T/C [4]: 2 % of control

Compound: CC(=O)OCCOc1ccc(C(C)(C)C)cc1
- T/C (dose: 57.0 mg/kg/injection, schedule: Q01DX011 (ip), vehicle: methylcellulose (MC)): 57 % of control
- T/C (dose: 113.0 mg/kg/injection, schedule: Q01DX011 (ip), vehicle: carboxymethylcellulose (CMC)): 122 % of control
- T/C (dose: 113.0 mg/kg/injection, schedule: Q01DX011 (ip), vehicle: methylcellulose (MC)): 83 % of control
- T/C (dose: 225.0 mg/kg/injection, schedule: Q01DX011 (ip), vehicle: carboxymethylcellulose (CMC)): 171 % of control
- T/C [9]: 47 % of control
- T/C (dose: 450.0 mg/kg/injection, schedule: Q01DX011 (ip), vehicle: carboxymethylcellulose (CMC)): 107 % of control
- T/C [2]: 70 % of control
- T/C (dose: 600.0 mg/kg/injection, schedule: Q01DX011 (ip), vehicle: carboxymethylcellulose (CMC)): 65 % of control
